Experimental data as given in ChEMBL document CHEMBL3507680, “University of Dundee, Gates Library screen for HepG2 cell viability”.

Experiment: Human HepG2 cell viability assay in 384 well format
Assay type: toxicity, cell-based
Set-up: dose 125 nL, time 70.5 hour; concentration not given beside the values
Settings: HepG2 cells, read-out: Inhibition

| Compound | cytotoxicity at 70.5 h [%] |
| --- | --- |
| O=C(NCc1nncn1C1CC1)c1ccc(F)c(COCC2CC2)c1 | 7.64 |
| COCCC1(CNC(=O)NCC2CCCS2)CCCC1 (centres undefined) | -3.7 |
| CC(NC(=O)N1CCN(c2cccs2)CC1)c1ccc(C#N)cc1 (centres undefined) | -2.79 |
| CC(NC(=O)N1CCN(c2cccs2)CC1)c1ccncc1 (centres undefined) | -3.43 |
| CC(=O)N1CCCN(C(=O)NCCCc2cn[nH]c2C)CC1 | -2.68 |
| COCCOCC(=O)N(C)Cc1ccc(OCc2cccs2)cc1 | -6.68 |
| CCOC(=O)C1CCN(CCCc2nnnn2-c2ccccc2)CC1 | -3.5 |
| CC(=O)N(C)Cc1ccc(OCc2cccs2)cc1 | -2.58 |
| CCOCCN1CCN(CCCc2nnnn2-c2ccccc2)CC1 | -5.57 |
| CC(C)c1nsc(N2CCc3sccc3C2)n1 | -11.5 |
| COCCC1(CNC(=O)NCC2CCCN(C)C2)CCCC1 (centres undefined) | -1.2 |
| COc1ccc(CNC(C)c2cnc3cc(C)nn3c2C)cc1 (centres undefined) | -2.4 |
| Cc1cc2ncc(C(C)NCc3cccnc3)c(C)n2n1 (centres undefined) | -3.89 |
| CC(C)C1CN(C(=O)Nc2cnn(CC(F)F)c2)CCO1 (centres undefined) | -4.6 |
| Cc1nc(C2CCCN2CCOCC2CC2)no1 (centres undefined) | -11.1 |
| Cc1cnn(CCCNC(=O)NCCS(=O)(=O)Nc2ccccc2)c1 | -25.5 |
| NC(=O)C1CCN(CCCNC(=O)Nc2nncs2)CC1 | -14.5 |
| Cc1ccccc1C(CC(=O)N1CCc2sccc2C1)NC(N)=O (centres undefined) | -21.9 |
| Cc1csc(NC(=O)NCCCN2CCC(C(N)=O)CC2)n1 | -16.3 |
| CN1CC(C(=O)NCCc2ccc(Br)cc2F)CC1=O (centres undefined) | -19.2 |
| CCC(Nc1ccc(CCN2CCCCC2)cc1)C(N)=O (centres undefined) | -8.14 |
| CN1CC(C(=O)NCc2ccc(Br)cc2F)CC1=O (centres undefined) | -14.4 |
| Cc1cnn(CCCNC(=O)NC(C)C(=O)Nc2ccccc2)c1 (centres undefined) | 6.05 |

| Compound | cytotoxicity at 70.5 h [%] |
| --- | --- |
| CSc1ccc(OCCN2CCNC(=O)C2C)cc1 (centres undefined) | -15.5 |
| O=C(Cc1ccccc1O)NC1CCCN(c2ccccc2F)C1=O (centres undefined) | -18.3 |
| Cc1c(C(=O)NCC(C)(C)S(C)(=O)=O)cccc1-c1ccccn1 | -16.9 |
| Cc1ccccc1CNC(=O)CNc1ccc(OC2CCOC2)cc1 (centres undefined) | -13.6 |
| COc1ccccc1CN(Cc1nc(C)no1)C1CC1 | -20.3 |
| Cc1cc(CC(=O)NC2CCCN(c3ccccc3Cl)C2=O)n[nH]1 (centres undefined) | -19 |
| COCc1nn(Cc2ccc(Br)s2)c(=O)o1 | -9.84 |
| COc1ccccc1CN(Cc1nc(CC(C)C)no1)C1CC1 | -14.2 |
| CCCc1nn(Cc2ccc(Br)s2)c(=O)o1 | -23.4 |
| NC1CCCN(Cc2cccc(C(F)(F)F)c2)C1=O (centres undefined) | -7.1 |
| CC(C)c1nc(C2CCCN2CCS(C)(=O)=O)no1 (centres undefined) | -12.9 |
| Cc1cc(CC(=O)NC2CCCN(Cc3ccccc3)C2=O)n[nH]1 (centres undefined) | -21.2 |
| Cc1cc(F)ccc1N1CCCC(NC(=O)CCCn2ccnc2)C1 (centres undefined) | -26 |
| CN(CCc1ccc2c(c1)CCO2)CC1CCS(=O)(=O)C1 (centres undefined) | -9.73 |
| CCc1noc(CN(C)C(=O)C(C)(C)Oc2cccc(Cl)c2)n1 | 7.49 |
| Cc1cc(C)c(CNC(=O)NCc2nnc3n2CCC3)c(=O)[nH]1 | 14.7 |
| Cc1cccc(-c2nc(C)nn2CN2CCN(S(C)(=O)=O)CC2)c1 | -3.93 |
| COC(=O)CNC(=O)C1(NC(=O)c2ccc3[nH]ncc3c2)CCCC1 | 0.707 |
| CC(C)S(=O)(=O)Cc1cccc(NC(=O)c2ccc[nH]2)c1 | -11 |
| CCc1noc(CN(C)C(=O)COc2cccc(Cl)c2C)n1 | -6.73 |
| CC(C)C(CCO)NC(=O)Nc1cc(F)ccc1-n1cccn1 (centres undefined) | -3.1 |
| CC(C)c1nc(C2CCCN2c2cnc3ccccc3n2)no1 (centres undefined) | -6.53 |
| COCC(=O)N1CCC(Nc2ccnc3ccc(Cl)cc23)CC1 | 4.85 |

| Compound | cytotoxicity at 70.5 h [%] |
| --- | --- |
| Cc1ccc(S(C)(=O)=O)cc1C(=O)NS(=O)(=O)c1cccs1 | -5.12 |
| Cc1nc2c(s1)C(N(C)C(=O)NCCCC(C)(C)CO)CCC2 (centres undefined) | -6.11 |
| O=C(CCOCC(F)(F)F)NS(=O)(=O)c1cccnc1 | -3.03 |
| CCC(C)NS(=O)(=O)Cc1cccc(NC(=O)c2ccc[nH]2)c1 (centres undefined) | -2.71 |
| CCC(C)NS(=O)(=O)Cc1cccc(NC(=O)C2=CCCC2)c1 (centres undefined) | -4.4 |
| COc1cc(F)cc(NC(=O)NCc2cccc(N(C)C)n2)c1 | 16.5 |
| Cc1cc(C)c(CNC(=O)NCc2nnc3n2CCCCC3)c(=O)[nH]1 | -5.09 |
| CC1CCN(C(=O)CSCc2noc(C(C)C)n2)CC1 | -4.52 |
| Cn1cc(C(O)CNC(=O)Nc2cc(F)ccc2-n2cccn2)cn1 (centres undefined) | 5.74 |
| CCNC(=O)N(C)C1CCCc2nc(C)sc21 (centres undefined) | -2.26 |
| CC(=O)N1CCN(C(=O)NCCCN(C)S(C)(=O)=O)CC1 | -5.97 |
| CC(=O)N1CCCN(C(=O)NCCCN(C)S(C)(=O)=O)CC1 | -8.8 |
| CC1CCN(C(=O)CSCc2nc(C3CC3)no2)CC1 | -2.56 |
| CC(C)Cc1nc(CSCC(=O)N2CCC(C)CC2)no1 | 3.72 |
| Cn1ncnc1NCc1ccc(F)cc1 | -9.9 |
| Cc1cc(=O)n2nc(Oc3ccc(Cl)c(C)c3)sc2n1 | -6.83 |
| CC(NC(=O)NCc1cccnc1N(C)C)c1cccs1 (centres undefined) | -23.6 |
| Cc1ccc(S(=O)(=O)N2CCN(Cc3ccncc3)CC2)c(Cl)c1 | -26.7 |
| CC(C)NC(=O)c1noc2c1CN(Cc1cnn(C)c1)CC2 | -5.58 |
| Cc1cccc(S(=O)(=O)N2C[C@@H]3C[C@@H](c4nc(C)no4)O[C@@H]3C2)c1 | -3.34 |
| CCN(C(=O)c1nc2c(s1)CCCN2c1ccc(C)nn1)C(C)C | -3.47 |
| CC(C)CCC(=O)N1C[C@H]2CCN[C@H]2C1 | -3.29 |
| Cc1csc(NC(=O)[C@@H]2C[C@H]3[C@H](CCN3S(C)(=O)=O)O2)n1 | -1.16 |

| Compound | cytotoxicity at 70.5 h [%] |
| --- | --- |
| Cc1nocc1C(=O)N1CCOC2(COCCN(CC3CC3)C2)C1 (centres undefined) | -2.08 |
| Cc1ccc(N2CC[C@H](OCC3CC3)[C@@H]2Cc2ccncc2)nn1 | -4.81 |
| O=C(CC(F)(F)F)N1C[C@H]2CCN[C@H]2C1 | -2.74 |
| COCc1cncc2c1CCN(C(=O)c1cscn1)C2 | 20.4 |
| CC(=O)N1CCC2(CC1)CN(CC1CC1)c1ccc(F)cc12 | 1.47 |
| CN(C)C(=O)[C@H]1CCS(=O)(=O)[C@@H]2CN(c3ncccn3)C[C@H]12 | -4.18 |
| CS(=O)(=O)NCc1ncn2c1CN(C(=O)C1CCCO1)CCC2 (centres undefined) | 0.98 |
| COc1cc(N2C[C@@H]3COC[C@@H](Cc4nnc(C)o4)[C@@H]3C2)ncn1 | -0.141 |
| Cn1c2c(c(=O)n1C)CN(C(=O)c1ccncc1F)CCC2 | 5.23 |
| Cn1c2c(c(=O)n1C)CN(C(=O)c1cccc(F)c1)CCC2 | 1.87 |
| CCOc1ncnc2c1CCN(S(=O)(=O)c1ccccc1)CC2 | -14.4 |
| CCOCC1CN(S(=O)(=O)c2cccc(C)c2)Cc2nccn2C1 (centres undefined) | -8.99 |
| CCOCC1CN(S(=O)(=O)Cc2ccccc2)Cc2nccn2C1 (centres undefined) | -3.22 |
| Cc1cnc(N2CCc3c(CNc4ccnc(C)n4)cncc3C2)nc1 | 18.6 |
| Cn1cc(C(=O)NCc2cncc3c2CCN(CC2CC2)C3)cn1 | 17.9 |
| CC(C)N(C)Cc1cncc2c1CCN(CC(=O)N(C)C)C2 | 20 |
| CNC(=O)N1CCC2(CC1)c1ncc(-c3cccc(F)c3)n1CCN2C | -1.6 |
| Cc1ccc(CN2C[C@H](OCC3CCOCC3)[C@H]3COC[C@H]32)o1 | 17 |
| CCOC(=O)[C@]12CCCN(Cc3cccs3)C[C@H]1CN(C(C)=O)C2 | -1.84 |
| CN(C)CCN1C(=O)CCC12CCCN(C(=O)c1ccncc1F)C2 (centres undefined) | 15.9 |
| Cn1cncc1C(=O)N1CCOC2(COCCN(CC3CC3)C2)C1 (centres undefined) | -1.4 |
| CCOCc1cncc2c1CCN(C(=O)c1cscn1)C2 | -4.56 |
| CC(C)COCc1cncc2c1CCN(C(=O)c1cscn1)C2 | -2.6 |

| Compound | cytotoxicity at 70.5 h [%] |
| --- | --- |
| CC1c2ncc(Cn3cccn3)n2CCN1Cc1ccc(F)cc1 (centres undefined) | -2.85 |
| COCCN1C(=O)C2(CCN(CC3CC3)CC2)c2ccccc21 | 0.205 |
| c1cnc(N2C[C@H]3CCN(CC4CC4)C[C@H]3C2)cn1 | 3.82 |
| CC1COC2(CCN(C(=O)Cc3ccncc3)CC2)C1 (centres undefined) | -0.819 |
| N#Cc1ccc(N2CCCC3(CCN(c4cncnc4)C3=O)C2)nc1 (centres undefined) | 7.49 |
| O=C(C1CC=CC1)N1C[C@H]2CN(Cc3ccncc3)C(=O)[C@H]2C1 | 2.42 |
| CCCN1CCC(c2nc3ccc(C)cn3n2)CC1 | -6.41 |
| Cc1csc(CN2CCC3(CC2)COC(COCC2CC2)C3)n1 (centres undefined) | -0.893 |
| CCCN1CCC(c2nc3ccc(-c4cccc(F)c4)cn3n2)CC1 | -7.17 |
| Cc1noc(C)c1CN1CCc2ncnc(-c3ccoc3)c2CC1 | 15.5 |
| c1cncc(OC[C@]23COC[C@H]2CN(C2CCOCC2)C3)c1 | -1.59 |
| CN(Cc1ccco1)C[C@H]1OC[C@@H]2CN(c3ncc(F)cn3)CC[C@@H]21 | -1.81 |
| COCCO[C@H]1CCN(c2ccc(C)nn2)[C@H]1Cc1cccnc1 | 12.5 |
| CNC(=O)N1CCC2(CC1)c1ncc(C)n1CCN2C | -0.582 |
| N#Cc1ccc(N2CCC3(CCC(=O)N3CCN3CCCC3)CC2)nc1 | -9.44 |
| CN(C)CCN1C(=O)C2(CCN(CC3CC3)CC2)c2ccccc21 | -4.59 |
| CCN1C(=O)C2(CCN(CCN(C)C)CC2)c2ccccc21 | 19.9 |
| CC1c2ncc(Cn3cccn3)n2CCN1Cc1ccccn1 (centres undefined) | -1.75 |
| c1cc(CN2C[C@@H]3OCCN(CC4CC4)[C@@H]3C2)n[nH]1 | -7.71 |
| Cc1noc(C)c1CN1CCc2ncnc(-c3ccncc3)c2CC1 | 42.6 |
| Cn1cnc(S(=O)(=O)N2CC3(CCN(Cc4ccncc4)C3)C2)c1 | -6.66 |
| Cc1cc(C(=O)N2CCc3nc(N4CCOCC4)nc(C)c3C2)c(C)o1 | -6.78 |
